Molecules are shown by their SMILES.

In this test the target is T1, BaF3 BRAF-KIAA1549 fusion cells (Homo sapiens, UniProt P15056).
T1 construct: The BRAF-KIAA1549 fusion mutant was subcloned into pMXs-IRES-Blasticidin (RTV-016, Cell Biolabs, San Diego, CA); fused on or other part: Q9HCM3 (UPF0606 protein KIAA1549)
T1 sequence (P15056 whole entry, change not shown, the tested form may be a part): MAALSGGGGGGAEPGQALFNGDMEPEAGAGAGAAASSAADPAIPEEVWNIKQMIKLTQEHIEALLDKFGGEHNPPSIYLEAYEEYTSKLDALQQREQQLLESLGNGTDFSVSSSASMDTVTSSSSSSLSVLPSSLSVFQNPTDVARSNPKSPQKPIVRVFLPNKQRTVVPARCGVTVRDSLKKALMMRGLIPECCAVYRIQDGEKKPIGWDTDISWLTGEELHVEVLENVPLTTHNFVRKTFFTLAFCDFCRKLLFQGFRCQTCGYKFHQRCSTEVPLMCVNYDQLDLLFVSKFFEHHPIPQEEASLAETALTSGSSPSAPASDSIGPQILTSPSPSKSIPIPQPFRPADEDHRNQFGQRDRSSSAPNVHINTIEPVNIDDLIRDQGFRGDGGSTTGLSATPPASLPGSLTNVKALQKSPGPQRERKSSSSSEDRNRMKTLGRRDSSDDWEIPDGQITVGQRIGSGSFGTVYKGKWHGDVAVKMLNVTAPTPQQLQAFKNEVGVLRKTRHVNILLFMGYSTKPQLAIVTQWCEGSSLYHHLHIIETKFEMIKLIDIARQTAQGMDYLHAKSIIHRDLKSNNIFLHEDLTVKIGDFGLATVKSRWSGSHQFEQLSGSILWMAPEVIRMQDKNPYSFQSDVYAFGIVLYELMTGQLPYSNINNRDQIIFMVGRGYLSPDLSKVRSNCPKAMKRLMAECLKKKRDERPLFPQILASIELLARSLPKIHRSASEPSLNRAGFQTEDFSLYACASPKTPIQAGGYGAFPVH
Briefly: BaF3 BRAF-KIAA1549 fusion cell proliferation assay (CellTiterGlo). It counts as cell-based. To be noted: 96 hours incubation, potency code. In a few lines: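 BaF3 cells stably transduced with a BRAF-KIAA1549 fusion, blasticidin-selected and growing without IL-3, were treated with compound for 96 h in RPMI/10% heat-inactivated FBS. Viability read as ATP content by CellTiterGlo luminescence, normalised to DMSO-treated cells. IC50 by Levenberg-Marquardt fit.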
Background: In ATP-based viability assays light output follows the ATP content of the culture.
As a reminder, the GI50 is the concentration giving 50% growth inhibition. High values mean lower sensitivity of the cells, low ones greater sensitivity of the cells. For the compound `Cc1ccc(NC(=O)c2ccc(Cl)c(N(C)C)c2)cc1Nc1ncccc1-c1ncnc2[nH]cnc12` [Compound I-81, N-(3-((3-(9H-purin-6-yl)pyridin-2-yl)amino)-4-methylphenyl)-4-chloro-3-(dimethylamino)benzamide], the GI50 was less than 20 nM.

Consider `Cc1ccc(NC(=O)c2ccc(C(F)(F)F)c(C#N)c2)cc1Nc1ncccc1-c1ncnc2[nH]cnc12` [Compound I-42, N-(3-((3-(9H-purin-6-yl)pyridin-2-yl)amino)-4-methylphenyl)-3-cyano-4-(trifluoromethyl)benzamide], for which the GI50 was less than 20 nM.

In the case of `Cc1ccc(NC(=O)C[C@@H]2CCO[C@@H](C(F)(F)F)C2)cc1Nc1ncccc1-c1ncnc2[nH]cnc12` (single isomer, unassigned) [IA-148], the GI50 was 20 to 100 nM.

In turn, `Cc1ccc(NC(=O)c2cccc(C(F)(F)F)c2)cc1Nc1ncccc1-c1ncnc2[nH]cnc12` [IA-145, N-(3-((3-(9H-purin-6-yl)pyridin-2-yl)amino)-4-methylphenyl)-3-(trifluoromethyl)benzamide] showed a GI50 of less than 20 nM.

Consider `Cc1ccc(NC(=O)CN2CCCOCC2)cc1Nc1ncccc1-c1ncnc2[nH]cnc12` [IA-133, N-(3-((3-(9H-purin-6-yl)pyridin-2-yl)amino)-4-methylphenyl)-2-(1,4-oxazepan-4-yl)acetamide], for which the GI50 was not below 500 nM.

`Cc1ccc(NC(=O)C[C@H]2CCO[C@H](C(F)(F)F)C2)cc1Nc1ncccc1-c1ncnc2[nH]cnc12` (single isomer, unassigned) [IA-147] yielded a GI50 of 20 to 100 nM.

The compound `Cc1ccc(NC(=O)CN2CC[C@H](C(F)(F)F)C2)cc1Nc1ncccc1-c1ncnc2[nH]cnc12` [IA-109, (S)—N-(3-((3-(9H-purin-6-yl)pyridin-2-yl)amino)-4-methylphenyl)-2-(3-(trifluoromethyl)pyrrolidin-1-yl)acetamide] gave a GI50 of less than 20 nM.

Regarding `Cc1ccc(NC(=O)c2cc(C(F)F)c(C)cn2)cc1Nc1ncccc1-c1ncnc2[nH]cnc12` [IA-90, N-(3-((3-(9H-purin-6-yl)pyridin-2-yl)amino)-4-methylphenyl)-4-(difluoromethyl)-5-methylpicolinamide], the GI50 lay in the range of 20 to 100 nM.

Regarding `Cc1ccc(NC(=O)C23CC(C(F)(F)F)(CO2)C3)cc1Nc1ncccc1-c1ncnc2[nH]cnc12` [IA-108, N-(3-(3-(9H-purin-6-yl)pyridin-2-ylamino)-4-methylphenyl)-4-(trifluoromethyl)-2-oxabicyclo[2.1.1]hexane-1-carboxamide], the GI50 lay in the range of 100 to 500 nM.

Compound `Cc1ncc(NC(=O)c2ccnc(C3(C#N)CC3)c2)cc1Nc1ncccc1-c1ncnc2[nH]cnc12` [Compound I-54, N-(5-(3-(9H-purin-6-yl)pyridin-2-ylamino)-6-methylpyridin-3-yl)-2-(1-cyanocyclopropyl)isonicotinamide] had a GI50 of 20 to 100 nM.

As for `Cc1ccc(C(=O)Nc2cncc(C(F)(F)F)c2)cc1Nc1ncccc1-c1ncnc2[nH]cnc12` [Compound I-30, 3-((3-(9H-purin-6-yl)pyridin-2-yl)amino)-4-methyl-N-(5-(trifluoromethyl)pyridin-3-yl)benzamide], the GI50 was less than 20 nM.

With `Cc1ccc(NC(=O)CC2CCN(C)CCO2)cc1Nc1ncccc1-c1ncnc2[nH]cnc12` (stereo not shown) [IA-136, N-(3-(3-(9H-purin-6-yl)pyridin-2-ylamino)-4-methylphenyl)-2-(4-methyl-1,4-oxazepan-7-yl)acetamide], the GI50 was not below 500 nM.

Consider `Cc1c(F)cc(NC(=O)c2ccnc(C3(C#N)CC3)c2)cc1Nc1ncccc1-c1ncnc2[nH]cnc12` [Compound I-62, N-(3-((3-(9H-purin-6-yl)pyridin-2-yl)amino)-5-fluoro-4-methylphenyl)-2-(1-cyanocyclopropyl)isonicotinamide], for which the GI50 is less than 20 nM.

For the origin of these results see patent publication US20240317752A1, “6-SUBSTITUTED-9H-PURINE DERIVATIVES AND RELATED USES” (Black Diamond Therapeutics, Inc., priority 2021, published 2024).
